Data on 35 compounds can be found in patent US11512069B2, “TLR7/8 antagonists and uses thereof” (Merck Patent GmbH, priority 2016, dated 2022).

Where only a bound is given, the exact number is not on record here.

For the assay, the target named is T1, TLR7 (Homo sapiens, UniProt Q9NYK1).
T1 construct: expressed in transfected cells; host or cells: HEK cells carrying TLR7 and an NF-kB reporter read with Steady-Glo
T1 sequence (Q9NYK1 27-1049): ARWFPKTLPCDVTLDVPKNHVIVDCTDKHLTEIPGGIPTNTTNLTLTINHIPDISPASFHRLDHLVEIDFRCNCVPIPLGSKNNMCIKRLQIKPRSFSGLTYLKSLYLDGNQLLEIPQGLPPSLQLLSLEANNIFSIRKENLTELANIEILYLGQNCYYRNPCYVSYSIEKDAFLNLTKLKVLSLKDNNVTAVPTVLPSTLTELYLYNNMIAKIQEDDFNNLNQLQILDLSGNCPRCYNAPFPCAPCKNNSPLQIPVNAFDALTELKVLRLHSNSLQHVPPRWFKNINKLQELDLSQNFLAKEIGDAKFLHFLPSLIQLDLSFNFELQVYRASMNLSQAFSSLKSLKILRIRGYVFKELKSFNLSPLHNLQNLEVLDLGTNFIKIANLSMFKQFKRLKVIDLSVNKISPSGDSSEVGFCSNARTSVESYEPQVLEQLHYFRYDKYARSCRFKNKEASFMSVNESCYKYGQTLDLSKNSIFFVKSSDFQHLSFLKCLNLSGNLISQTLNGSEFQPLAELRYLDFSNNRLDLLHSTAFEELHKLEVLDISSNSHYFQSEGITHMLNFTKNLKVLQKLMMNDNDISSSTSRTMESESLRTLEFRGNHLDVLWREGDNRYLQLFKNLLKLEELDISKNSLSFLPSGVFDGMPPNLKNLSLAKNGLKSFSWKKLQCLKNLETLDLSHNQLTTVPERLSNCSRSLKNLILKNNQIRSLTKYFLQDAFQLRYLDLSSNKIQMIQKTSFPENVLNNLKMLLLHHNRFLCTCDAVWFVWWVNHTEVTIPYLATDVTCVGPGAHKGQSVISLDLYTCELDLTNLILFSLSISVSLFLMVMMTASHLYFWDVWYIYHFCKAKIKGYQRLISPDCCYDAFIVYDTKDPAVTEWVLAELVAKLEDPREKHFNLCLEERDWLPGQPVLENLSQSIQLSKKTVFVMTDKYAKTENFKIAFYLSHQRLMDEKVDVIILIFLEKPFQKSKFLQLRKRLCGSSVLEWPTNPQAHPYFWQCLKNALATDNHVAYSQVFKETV
The experiment in a line: HEK Cell Assay (TLR7/NFKb HEK reporter cells, Steady-Glo). The assay is classed as cell-based. The following applies: compound 30 min, then R*48 agonist 5 hours, Steady-Glo readout, read-out: Potency. An outline of the steps:
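TLR7/NF-κB HEK reporter cells cultured 24 h, then pre-incubated 30 min with compound before adding R*48 agonist. Luciferase read by Steady-Glo luminescence after 5 h.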

With `C[C@@H]1C[C@H](c2cccc3ncccc23)CN(C(=O)NC2CCN(C)CC2)C1` [Compound 115, (3R,5R)-3-Methyl-5-quinolin-5-yl-piperidine-1-carboxylic acid (1-methyl-piperidin-4-yl)-amide], the IC50 fell in the range of 1000 to 20000 nM.
For the compound `C[C@@H]1C[C@H](c2ccc(C#N)c3ncccc23)CN(C(=O)C2(N)CC2)C1` [Compound 98, 5-[(3R,5R)-1-(1-Amino-cyclopropanecarbonyl)-5-methyl-piperidin-3-yl]-quinoline-8-carbonitrile], the IC50 was more than 20000 nM.
As for `C[C@@H]1C[C@H](c2ccc(C#N)c3ncccc23)CN(C(=O)C2CC(N)C2)C1` (stereo partly drawn) [Compound 100, 5-[(3R,5R)-1-(3-aminocyclobutanecarbonyl)-5-methyl-3-piperidyl]quinoline-8-carbonitrile], the IC50 is less than 1000 nM.
The value for `C[C@H]1C[C@@H](c2ccc(C#N)c3ncccc23)CN(C(=O)CC2CCN(C)CC2)C1` [Compound 56] was 1000 to 20000 nM; that for `C[C@H]1C[C@H](c2ccc(C#N)c3nccnc23)CN(C(=O)CC2CCN(C)CC2)C1` [Compound 101, 8-{(3R,5S)-5-Methyl-1-[2-(1-methyl-piperidin-4-yl)-acetyl]-piperidin-3-yl}-quinoxaline-5-carbonitrile] was more than 20000 nM; that for `C[C@@H]1C[C@H](c2ccc(C#N)c3ncccc23)CN(C(=O)CN2CCN(C)CC2)C1` [Compound 97, 5-((3R,5R)-5-Methyl-1-[2-(4-methyl-piperazin-1-yl)-acetyl]-piperidin-3-yl}-quinoline-8-carbonitrile] was less than 1000 nM.
Consider `C[C@@H]1C[C@H](c2ccc(C(F)(F)F)c3ncccc23)CN(C(=O)CC2CCN(C)CC2)C1` (racemic) [Compound 4, cis-2-(1-Methyl-piperidin-4-yl)-1-[3-methyl-5-(8-trifluoromethyl-quinolin-5-yl)-piperidin-1-yl]-ethanone], for which the IC50 was less than 1000 nM.
The value for `C[C@H]1C[C@@H](N)C[C@H](c2ccc(C(F)(F)F)c3ncccc23)C1` [Compound 137, (1R,3R,5R)-3-methyl-5-(8-(trifluoromethyl)quinolin-5-yl)cyclohexanamine] was 1000 to 20000 nM; that for `CC1CC(c2ccc(C(F)(F)F)c3ncccc23)CN(c2ncco2)C1` (centres unmarked) [Compound 59, 5-(5-Methyl-1-oxazol-2-yl-piperidin-3-yl)-8-trifluoromethyl-quinoline] was 1000 to 20000 nM; that for `C[C@@H]1C[C@H](c2ccc(C#N)c3ncccc23)CN(C(=O)CN2CCC2)C1` (relative stereo) [Compound 33] was 1000 to 20000 nM.
As for `C[C@@H]1C[C@H](c2ccc(C(F)(F)F)c3ncccc23)CN(C(=O)Cn2cccn2)C1` (relative stereo) [Compound 14], the IC50 was more than 20000 nM.
Regarding `C[C@@H]1C[C@H](c2ccc(C#N)c3ncccc23)CN(C(=O)C2CCN(C)CC2)C1` (relative stereo) [Compound 39, cis-5-[5-Methyl-1-(1-methyl-piperidine-4-carbonyl)-piperidin-3-yl]-quinoline-8-carbonitrile], the IC50 lay within 1000 to 20000 nM.
The value for `CC1CC(c2ccc(C#N)c3ncccc23)CN(C(=O)NCC2CC(F)(F)C2)C1` (centres unmarked) [Compound 110, 3-(8-Cyano-quinolin-5-yl)-5-methyl-piperidine-1-carboxylic acid (3,3-difluoro-cyclobutylmethyl)-amide] was 1000 to 20000 nM.
Consider `C[C@H]1C[C@@H](N)C[C@@H](c2ccc(C(F)(F)F)c3ncccc23)C1` [Compound 135, (1R,3R,5S)-3-methyl-5-(8-(trifluoromethyl)quinolin-5-yl)cyclohexanamine], for which the IC50 fell in the range of 1000 to 20000 nM.
For `C[C@H]1C[C@@H](NC(=O)[C@H](N)C(F)(F)F)C[C@@H](c2ccc(C#N)c3nccnc23)C1` (racemic) [Compound 144, (2S)-2-amino-N-((cis-1,3,5)-3-(8-cyanoquinoxalin-5-yl)-5-methylcyclohexyl)-3,3,3-trifluoropropanamide], the IC50 fell in the range of 1000 to 20000 nM.
For the compound `CC1C[C@@H](c2ccc(C(F)(F)F)c3ncccc23)CN(C(=O)CN2CCOCC2)C1` (some centres unmarked) [Compound 17], the IC50 is more than 20000 nM.
The value for `C[C@@H]1C[C@H](c2ccc(C#N)c3ncccc23)CN(C(=O)Cc2cnn(C)c2)C1` (relative stereo) [Compound 107, cis-5-Methyl-1-[2-(1-methyl-1H-pyrazol-4-yl)-acetyl]-piperidin-3-yl-quinoline-8-carbonitrile] was more than 20000 nM; that for `C[C@@H]1C[C@H](c2ccc(C#N)c3ncccc23)CN(C(=O)CN2CCN(C)CC2)C1` (relative stereo) [Compound 29] was less than 1000 nM; that for `C[C@@H]1C[C@H](c2ccc(C#N)c3ncccc23)CN(C(=O)NC2CCN(C)CC2)C1` [Compound 113, (3R,5R)-3-(8-Cyano-quinolin-5-yl)-5-methyl-piperidine-1-carboxylic acid (1-methyl-piperidin-4-yl)-amid] was less than 1000 nM.
The value for `CC1CC(c2ccc(C#N)c3ncccc23)CN(CC2CCN(C)C2)C1` (centres unmarked) [Compound 51] was less than 1000 nM.
Turning to `CC1CC(c2ccc(C(F)(F)F)c3ncccc23)CN(c2ccon2)C1` (centres unmarked) [Compound 57, 5-(1-Isoxazol-3-yl-5-methyl-piperidin-3-yl)-8-trifluoromethyl-quinoline], the IC50 was more than 20000 nM.
For `C[C@H]1C[C@@H](N)C[C@H](c2ccc(C#N)c3nccnc23)C1` [Compound 123, 8-[(1R,3R,5R)-3-amino-5-methylcyclohexyl]quinoxaline-5-carbonitrile], the IC50 is less than 1000 nM.
The value for `C[C@@H]1C[C@@H](c2ccc(C(F)(F)F)c3ncccc23)CN(CCO)C1` (relative stereo) [Compound 8] was more than 20000 nM; that for `C[C@H]1C[C@H](c2ccc(C#N)c3ncccc23)CN(C(=O)CC2(N)CC2)C1` (relative stereo) [Compound 63, Trans-1-[2-(1-Amino-cyclopropyl)-acetyl]-5-methyl-piperidin-3-yl-quinoline-8-carbonitrile] was 1000 to 20000 nM.
For the compound `C[C@@H]1C[C@H](c2ccc(C#N)c3ncccc23)CN(C(=O)CC2(N)CC2)C1` (relative stereo) [Compound 62, Cis-1-[2-(1-Amino-cyclopropyl)-acetyl]-5-methyl-piperidin-3-yl-quinoline-8-carbonitrile], the IC50 fell in the range of 1000 to 20000 nM.
Take `C[C@@H]1C[C@H](c2ccc(C(F)(F)F)c3ncccc23)CN(C(=O)CN2CCOCC2)C1` (relative stereo) [Compound 16]: the IC50 is more than 20000 nM.
The same measure for `C[C@@H]1C[C@@H](c2ccc(C(F)(F)F)c3ncccc23)CN(C(=O)NC2CC2)C1` (relative stereo) [Compound 41, trans-Cyclopropyl-3-methyl-5-[8-(trifluoromethyl)-5-quinolyl] piperidine-1-carboxamide]: 1000 to 20000 nM; for `Cc1c(F)cc([C@H]2C[C@@H](C)CN(C(=O)CC3CCN(C)CC3)C2)c2cccnc12` [Compound 90, 1-[(3R,5R)-3-(7-Fluoro-8-methyl-quinolin-5-yl)-5-methyl-piperidin-1-yl]-2-(1-methyl-piperidin-4-yl)-ethanone]: less than 1000 nM; for `CC1C[C@H](c2ccc(C#N)c3ncccc23)CN(C(=O)CC(F)(F)F)C1` (some centres unmarked) [Compound 27]: more than 20000 nM.
For `C[C@@H]1C[C@H](c2ccc(C#N)c3ncccc23)CN(C(=O)c2ccc(N3CCC3)nc2)C1` (relative stereo) [Compound 36, cis-5-[1-(6-Azetidin-1-yl-pyridine-3-carbonyl)-5-methyl-piperidin-3-yl]-quinoline-8-carbonitrile], the IC50 is more than 20000 nM.
Regarding `CC1CC(c2ccc(C#N)c3ncccc23)CN(C(=O)CCC2CCN(C)CC2)C1` (centres unmarked) [Compound 23], the IC50 was less than 1000 nM.
As for `C[C@@H]1C[C@@H](c2ccc(C#N)c3ncccc23)CN(C(=O)CC2CCN(C)CC2)C1` [Compound 54, 5-{(3S,5R)-5-Methyl-1-[2-(1-methyl-piperidin-4-yl)-acetyl]-piperidin-3-yl}-quinoline-8-carbonitrile], the IC50 is less than 1000 nM.
As for `C[C@@H]1C[C@H](N)C[C@@H](c2ccc(C(F)(F)F)c3ncccc23)C1` [Compound 138, (1S,3S,5S)-3-methyl-5-(8-(trifluoromethyl)quinolin-5-yl)cyclohexanamine], the IC50 was less than 1000 nM.
As for `C[C@@H]1C[C@@H](c2ccc(C#N)c3ncccc23)CN(C(=O)CN2CCN(C)CC2)C1` (relative stereo) [Compound 30], the IC50 was less than 1000 nM.
Take `CC1C[C@H](c2ccc(C#N)c3ncccc23)CN(C(=O)CCc2cccnc2)C1` (some centres unmarked) [Compound 25]: the IC50 was in the range of 1000 to 20000 nM.
